Results: patent US20230089073A1 (Carmot Therapeutics, Inc., priority 2021, published 2023)

The molecules below were run against T1, human GLP-1 receptor (Homo sapiens, UniProt P43220) (assay: GLP-1R cAMP Assay). Conditions: cAMP accumulation in CHO cells stably overexpressing the human GLP-1 receptor; 30 min treatment; HitHunter cAMP kit; read-out: EC50.
T1 construct: expressed in transfected cells
Type: cell-based
How it was run: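 Luminescent enzyme-complementation detection of cAMP, read after cell lysis and overnight incubation, with dose-response curve fitting. Stimulation lasted 30 min, using 20-point triplicate dosing on CHO cells (10,000 per well) stably overexpressing human GLP-1R.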

T1 sequence (P43220 24-463): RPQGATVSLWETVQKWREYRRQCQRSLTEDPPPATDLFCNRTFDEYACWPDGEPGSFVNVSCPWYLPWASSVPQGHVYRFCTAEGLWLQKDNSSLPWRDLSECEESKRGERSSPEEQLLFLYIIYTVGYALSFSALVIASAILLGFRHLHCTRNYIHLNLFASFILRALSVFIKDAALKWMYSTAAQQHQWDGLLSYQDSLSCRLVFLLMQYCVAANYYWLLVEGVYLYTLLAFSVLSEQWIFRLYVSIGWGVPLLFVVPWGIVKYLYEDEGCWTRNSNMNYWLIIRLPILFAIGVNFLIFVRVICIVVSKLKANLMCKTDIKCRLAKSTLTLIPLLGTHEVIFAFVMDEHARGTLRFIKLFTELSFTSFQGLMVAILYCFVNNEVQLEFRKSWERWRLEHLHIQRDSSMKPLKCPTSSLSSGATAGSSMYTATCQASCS

EC50, < 50 nM:
CCn1cncc1Cn1c(CN2CCC(C(F)(F)c3cccc(COc4ccc(Cl)cc4Cl)c3)CC2)nc2ccc(C(=O)O)cc21 [Compound 161, 2-{[4-({3-[(2,4-dichlorophenoxy)methyl]phenyl}difluoromethyl)piperidin-1-yl]methyl}-1-[(1-ethyl-1H-imidazol-5-yl)methyl]-1H-1,3-benzodiazole-6-carboxylic acid]
O=C(O)c1ccc2nc(CN3CCC(Cc4ccc(F)c(COc5ccc(Cl)cc5Cl)c4)CC3)n(C[C@@H]3CCO3)c2c1 [Compound 162, 2-{[4-({3-[(2,4-dichlorophenoxy)methyl]-4-fluorophenyl}methyl)piperidin-1-yl]methyl}-1-{[(2S)-oxetan-2-yl]methyl}-1H-1,3-benzodiazole-6-carboxylic acid]
CCn1cncc1Cn1c(CN2CCC(Cc3cccc(COc4ccc(Cl)cc4C#N)c3)CC2)nc2ccc(C(=O)O)cc21 [Compound 165, 2-{[4-({3-[(4-chloro-2-cyanophenoxy)methyl]phenyl}methyl)piperidin-1-yl]methyl}-1-[(1-ethyl-1H-imidazol-5-yl)methyl]-1H-1,3-benzodiazole-6-carboxylic acid]
N#Cc1cc(Cl)ccc1OCc1cccc(CC2CCN(Cc3nc4ccc(C(=O)O)cc4n3C[C@@H]3CCO3)CC2)c1 [Compound 166, 2-{[4-({3-[(4-chloro-2-cyanophenoxy)methyl]phenyl}methyl)piperidin-1-yl]methyl}-1-{[(2S)-oxetan-2-yl]methyl}-1H-1,3-benzodiazole-6-carboxylic acid]
O=C(O)c1ccc2nc(CN3CCC(Oc4ccnc(COc5ccc(Cl)cc5Cl)c4)CC3)n(C[C@@H]3CCO3)c2c1 [Compound 168, 2-{[4-({2-[(2,4-dichlorophenoxy)methyl]pyridin-4-yl}oxy)piperidin-1-yl]methyl}-1-{[(2S)-oxetan-2-yl]methyl}-1H-1,3-benzodiazole-6-carboxylic acid]
O=C(O)c1ccc2nc(CN3CCC(Oc4ccnc(COc5ccc(Cl)cc5Cl)c4)CC3)n(C[C@H]3CCOC3)c2c1 [Compound 169, 2-{[4-({2-[(2,4-dichlorophenoxy)methyl]pyridin-4-yl}oxy)piperidin-1-yl]methyl}-1-{[(3R)-oxolan-3-yl]methyl}-1H-1,3-benzodiazole-6-carboxylic acid]
O=C(O)c1ccc2nc(CN3CCC(Oc4ccnc(COc5ccc(Cl)cc5Cl)c4)CC3)n(Cc3ncco3)c2c1 [Compound 170, 2-{[4-({2-[(2,4-dichlorophenoxy)methyl]pyridin-4-yl}oxy)piperidin-1-yl]methyl}-1-[(1,3-oxazol-2-yl)methyl]-1H-1,3-benzodiazole-6-carboxylic acid]
O=C(O)c1ccc2nc(CN3CCC(Oc4cccc(COc5ccc(Cl)cc5Cl)c4)CC3)n(C[C@@H]3CCO3)c2c1 [Compound 174, 2-[(4-{3-[(2,4-dichlorophenoxy)methyl]phenoxy}piperidin-1-yl)methyl]-1-{[(2S)-oxetan-2-yl]methyl}-1H-1,3-benzodiazole-6-carboxylic acid]
CCn1cncc1Cn1c(CN2CCC(Oc3cc(COc4ccc(Cl)cc4Cl)ccn3)CC2)nc2ccc(C(=O)O)cc21 [Compound 179, 2-{[4-({4-[(2,4-dichlorophenoxy)methyl]pyridin-2-yl}oxy)piperidin-1-yl]methyl}-1-[(1-ethyl-1H-imidazol-5-yl)methyl]-1H-1,3-benzodiazole-6-carboxylic acid]
N#Cc1cc(Cl)ccc1OCc1cc(OC2CCN(Cc3nc4ccc(C(=O)O)cc4n3C[C@@H]3CCO3)CC2)ccn1 [Compound 182, 2-{[4-({2-[(4-chloro-2-cyanophenoxy)methyl]pyridin-4-yl}oxy)piperidin-1-yl]methyl}-1-{[(2S)-oxetan-2-yl]methyl}-1H-1,3-benzodiazole-6-carboxylic acid]
N#Cc1cc(F)ccc1OCc1cc(OC2CCN(Cc3nc4ccc(C(=O)O)cc4n3C[C@@H]3CCO3)CC2)ccn1 [Compound 183, 2-{[4-({2-[(2-cyano-4-fluorophenoxy)methyl]pyridin-4-yl}oxy)piperidin-1-yl]methyl}-1-{[(2S)-oxetan-2-yl]methyl}-1H-1,3-benzodiazole-6-carboxylic acid]
N#Cc1cc(F)ccc1OCc1cccc(CC2CCN(Cc3nc4ccc(C(=O)O)cc4n3C[C@@H]3CCO3)CC2)c1 [Compound 187, 2-{[4-({3-[(2-cyano-4-fluorophenoxy)methyl]phenyl}methyl)piperidin-1-yl]methyl}-1-{[(2S)-oxetan-2-yl]methyl}-1H-1,3-benzodiazole-6-carboxylic acid]
CCn1cncc1Cn1c(CN2CCC(Cc3cccc(COc4ccc(F)cc4C#N)c3)CC2)nc2ccc(C(=O)O)cc21 [Compound 188, 2-{[4-({3-[(2-cyano-4-fluorophenoxy)methyl]phenyl}methyl)piperidin-1-yl]methyl}-1-[(1-ethyl-1H-imidazol-5-yl)methyl]-1H-1,3-benzodiazole-6-carboxylic acid]
CCn1cncc1Cn1c(CN2CCC(Oc3cccc(COc4ccc(Cl)cc4Cl)n3)CC2)nc2ccc(C(=O)O)cc21 [Compound 199, 2-{[4-({6-[(2,4-dichlorophenoxy)methyl]pyridin-2-yl}oxy)piperidin-1-yl]methyl}-1-[(1-ethyl-1H-imidazol-5-yl)methyl]-1H-1,3-benzodiazole-6-carboxylic acid]
O=C(O)c1ccc2nc(CN3CCC(Cc4cccc(OCc5ccc(Cl)cc5Cl)n4)CC3)n(C[C@@H]3CCO3)c2c1 [Compound 200, 2-{[4-({6-[(2,4-dichlorophenyl)methoxy]pyridin-2-yl}methyl)piperidin-1-yl]methyl}-1-{[(2S)-oxetan-2-yl]methyl}-1H-1,3-benzodiazole-6-carboxylic acid]
O=C(O)c1ccc2nc(CN3CCC(Oc4cccc(OCc5ccc(F)cc5Cl)c4)CC3)n(C[C@@H]3CCO3)c2c1 [Compound 207]
CCn1cncc1Cn1c(CN2CCC(Oc3cnc(COc4ccc(Cl)cc4Cl)o3)CC2)nc2ccc(C(=O)O)cc21 [Compound 214, 2-{[4-({2-[(2,4-dichlorophenoxy)methyl]-1,3-oxazol-5-yl}oxy)piperidin-1-yl]methyl}-1-[(1-ethyl-1H-imidazol-5-yl)methyl]-1H-1,3-benzodiazole-6-carboxylic acid]
CCn1cncc1Cn1c(CN2CCC(Oc3cccc(COc4ccc(Cl)cc4C#N)c3)CC2)nc2ccc(C(=O)O)cc21 [Compound 215, 2-[(4-{3-[(4-chloro-2-cyanophenoxy)methyl]phenoxy}piperidin-1-yl)methyl]-1-[(1-ethyl-1H-imidazol-5-yl)methyl]-1H-1,3-benzodiazole-6-carboxylic acid]
O=C(O)c1ccc2nc(CN3CCC(Oc4cccc(COc5ccc(Cl)cc5Cl)c4)CC3)n(Cc3ncco3)c2c1 [Compound 217, 2-[(4-{3-[(2,4-dichlorophenoxy)methyl]phenoxy}piperidin-1-yl)methyl]-1-[(1,3-oxazol-2-yl)methyl]-1H-1,3-benzodiazole-6-carboxylic acid]
O=C(O)c1ccc2nc(CN3CCC(Oc4cccc(COc5ccc(Cl)cc5F)c4)CC3)n(C[C@@H]3CCO3)c2c1 [Compound 221, 2-[(4-{3-[(4-chloro-2-fluorophenoxy)methyl]phenoxy}piperidin-1-yl)methyl]-1-{[(2S)-oxetan-2-yl]methyl}-1H-1,3-benzodiazole-6-carboxylic acid]
O=C(O)c1ccc2nc(CN3CCC(Oc4cccc(COc5ccc(Cl)cc5Cl)c4)CC3)n(C[C@@H]3CCO3)c2c1F [Compound 224, 2-[(4-{3-[(2,4-dichlorophenoxy)methyl]phenoxy}piperidin-1-yl)methyl]-7-fluoro-1-{[(2S)-oxetan-2-yl]methyl}-1H-1,3-benzodiazole-6-carboxylic acid]
O=C(O)c1ccc2nc(CN3CCC(Oc4ccnc(COc5ccc(Cl)cc5Cl)c4)CC3)n(C[C@@H](O)CCO)c2c1 [Compound 227, 2-{[4-({2-[(2,4-dichlorophenoxy)methyl]pyridin-4-yl}oxy)piperidin-1-yl]methyl}-1-[(2S)-2,4-dihydroxybutyl]-1H-1,3-benzodiazole-6-carboxylic acid]
CCn1cncc1Cn1c(CN2CCC(Oc3cccc(COc4ccc(Cl)cc4F)c3)CC2)nc2ccc(C(=O)O)cc21 [Compound 231, 2-[(4-{3-[(4-chloro-2-fluorophenoxy)methyl]phenoxy}piperidin-1-yl)methyl]-1-[(1-ethyl-1H-imidazol-5-yl)methyl]-1H-1,3-benzodiazole-6-carboxylic acid]
N#Cc1cc(Cl)ccc1OCc1cccc(OC2CCN(Cc3nc4ccc(C(=O)O)cc4n3Cc3ncco3)CC2)c1 [Compound 232, 2-[(4-{3-[(4-chloro-2-cyanophenoxy)methyl]phenoxy}piperidin-1-yl)methyl]-1-[(1,3-oxazol-2-yl)methyl]-1H-1,3-benzodiazole-6-carboxylic acid]
N#Cc1cc(Cl)ccc1OCc1cc(OC2CCN(Cc3nc4ccc(C(=O)O)cc4n3Cc3cnco3)CC2)ccn1 [Compound 240, 2-{[4-({2-[(4-chloro-2-cyanophenoxy)methyl]pyridin-4-yl}oxy)piperidin-1-yl]methyl}-1-[(1,3-oxazol-5-yl)methyl]-1H-1,3-benzodiazole-6-carboxylic acid]
N#Cc1cc(Cl)ccc1OCc1cc(OC2CCN(Cc3nc4ccc(C(=O)O)cc4n3Cc3ccno3)CC2)ccn1 [Compound 241, 2-{[4-({2-[(4-chloro-2-cyanophenoxy)methyl]pyridin-4-yl}oxy)piperidin-1-yl]methyl}-1-[(1,2-oxazol-5-yl)methyl]-1H-1,3-benzodiazole-6-carboxylic acid]
